Experimental data from patent publication US20240182413A1, “INSECTICIDAL COMPOUNDS” (Pluton Biosciences, Inc., priority 2022, published 2024).
“And” between values parts separate entries of the source, which are not always exact repeats. Equal values may be shown once. Read-outs that look alike come from different tables or passages of the source.

Assays:
[1] = tested on: Aedes aegypti; details: previously shown; cited from earlier work
[2] = tested on: Aedes aegypti larvae; assay: Aedes aegypti killing assay (larval bioassay, two-fold dilution series); type: in vivo; details: Aedes aegypti, 72 h
Description: Insect killing assays. Each compound was dissolved in dimethyl sulfoxide (DMSO). Killing dose curves were constructed for each compound by producing a two-fold dilution series for each compound (e.g., comprising approximately 20 serial dilutions of a stock). Dilutions were made in sterile nutrient yeast extract salt medium (NYSM) broth. The NYSM contained 8 g/L nutrient broth powder, 0.5 g/L yeast extract, 1 mM MgCl2, 700 μM CaCl2, and 50 μM MnCl2 in water. The two-fold dilution series were tested in a killing bioassay as described below. Data were collected to construct a dose curve and determine the half-maximal lethal concentration (LC50) value.
Bioassays were performed using second or third instar Aedes aegypti larvae, with biological replication. Ae. aegpyti larvae were purchased from Benzon Research, Inc. (Carlisle, PA). Larvae were washed with sterile water before transfer to 24-well assay plates containing 1 mL of sterile water in each well. Each well contained 5 larvae. The final DMSO concentration in each assay well was 1%. Larval mortality was scored for each well at 24-hour timepoints after application. […] In Table 1, mean mortalities and standard deviations were calculated from at least three independent biological replicates. […] LC50 values were calculated using GraphPad Prism software.

[3] = tested on: Spodoptera frugiperda (fall armyworm) first instar larvae; assay: Spodoptera frugiperda killing assay (diet-surface overlay); type: in vivo
Description: Insect killing assays. Each compound was dissolved in dimethyl sulfoxide (DMSO). Killing dose curves were constructed for each compound by producing a two-fold dilution series of the compound (e.g., comprising approximately 16 serial dilutions of a stock for 3,3′-diindolylmethane and 3-((1H-Indol-2-yl)methyl)-1H-indole and comprising approximately 12 serial dilutions of a stock for 3,3′-diindolyl and 3,3′-(pyridin-4-ylmethylene)bis(1H-indole)). Dilutions were made in sterile NYSM broth as described above. The two-fold dilution series were tested in a killing bioassay as described below. Data were collected to construct a dose curve and determine the half-maximal lethal concentration (LC50) value.
Bioassays were performed using first instar larvae of the Lepidopteran species Spodoptera frugiperda (fall armyworm), with an N=16 for each concentration of compound tested. S. frugiperda larvae were purchased from Benzon Research, Inc. (Carlisle, PA). A diet-surface overlay format was used in which 1 milliliter of standard lepidopteran diet was placed in each well. One hundred microliters of sample were pipetted into each well and allowed to dry. A DMSO control was included with each set of samples.
During the development of embodiments of the technology described herein, experiments were conducted to test the killing of arundine against a panel of 11 insect species. […] Briefly, arundine was dissolved in dimethyl sulfoxide (DMSO). Killing dose curves were constructed by producing a two-fold dilution series of arundine. Dilutions were made in sterile NYSM as described. The two-fold dilution series were tested in a killing bioassay performed using first instar larvae of the species listed in Table 4, with an N=16 for each concentration of compound tested. A diet-surface overlay format was used in which 1 milliliter of standard lepidopteran diet was placed in each well. One hundred microliters of sample were pipetted into each well and allowed to dry. A DMSO control was included with each set of samples. […] Data were collected to construct a dose curve and determine the half-maximal lethal concentration (LC50) value.

[4] = tested on: fall armyworm (Spodoptera frugiperda); details: after seven days of exposure; cited from earlier work
[5] = tested on: D. saccharalis (Sugarcane borer) first instar larvae; assay: Insect panel killing assay (diet-surface overlay); type: in vivo
Description: (§1) During the development of embodiments of the technology described herein, experiments were conducted to test the killing of arundine against a panel of 11 insect species. Killing assays were performed as described in Example 2 for Spodoptera frugiperda. Briefly, arundine was dissolved in dimethyl sulfoxide (DMSO). Killing dose curves were constructed by producing a two-fold dilution series of arundine. Dilutions were made in sterile NYSM as described. The two-fold dilution series were tested in a killing bioassay performed using first instar larvae of the species listed in Table 4, with an N=16 for each concentration of compound tested. A diet-surface overlay format was used in which 1 milliliter of standard lepidopteran diet was placed in each well. One hundred microliters of sample were pipetted into each well and allowed to dry. A DMSO control was included with each set of samples. Spinosad (MilliporeSigma, catalog #33706) was used as a positive control for insecticidal activity, and water was used as an additional negative control. Data were collected to construct a dose curve and determine the half-maximal lethal concentration (LC50) value. In Table 4, % of insects killed is provided in the table cells for the concentrations listed at the top (2500, 625, 156, and 0 μg/mL arundine).

[6] = tested on: H. virescens (Tobacco budworm) first instar larvae; assay: Insect panel killing assay (diet-surface overlay); type: in vivo
Description: as §1

[7] = tested on: A. gemmatalis (Velvetbean caterpillar) first instar larvae; assay: Insect panel killing assay (diet-surface overlay); type: in vivo
Description: as §1

[8] = tested on: S. exigua (Beet armyworm) first instar larvae; assay: Insect panel killing assay (diet-surface overlay); type: in vivo
Description: as §1

[9] = tested on: C. pomonella (Codling moth) first instar larvae; assay: Insect panel killing assay (diet-surface overlay); type: in vivo
Description: as §1

[10] = tested on: D. grandiosella (Southwestern corn borer) first instar larvae; assay: Insect panel killing assay (diet-surface overlay); type: in vivo
Description: as §1

[11] = tested on: S. eridania (Southern armyworm) first instar larvae; assay: Insect panel killing assay (diet-surface overlay); type: in vivo
Description: as §1

[12] = tested on: C. includens (Soybean looper) first instar larvae; assay: Insect panel killing assay (diet-surface overlay); type: in vivo
Description: as §1

[13] = tested on: T. ni (Cabbage looper) first instar larvae; assay: Insect panel killing assay (diet-surface overlay); type: in vivo
Description: as §1

[14] = tested on: H. zea (Corn earworm) first instar larvae; assay: Insect panel killing assay (diet-surface overlay); type: in vivo
Description: as §1

[15] = tested on: Vip3A resistant FAW; assay: Killing of Vip3A resistant fall armyworm; type: in vivo, Spodoptera frugiperda; details: 1000 ppm BIM compound, 20 μl on diet surface, 5-7 days
Description: (§2) During the development of embodiments of the technology provided herein, experiments were conducted to test the killing potency of arundine-derived BIM compounds against strains of fall armyworm (FAW) that are resistant to Bacillus thuringiensis (Bt) insecticidal proteins (e.g., Cry1Fa and Vip3A). Susceptible FAW (Spodoptera frugiperda) was obtained from Benzon Research Inc, Lancaster, PA. Cry1Fa resistant FAW originating from Puerto Rico was reared in a facility by Genective (Weldon, IL). Vip3A resistant FAW originating from southern US was reared in a facility by Genective (Weldon, IL).
(§3) FAW eggs were incubated at approximately 26° C. at 50% relative humidity until eclosion (approximately 3 days) and the hatch was timed to within 12 hours of infesting the diet plates. BIM compounds were obtained from frozen stocks, thawed, suspended in 5% DMSO along with NYSM buffer to provide a solution of 2000 ppm BIM compound in a total volume of 1.0 ml, and stored at −20° C. For testing, a single tube of each BIM compound sample was thawed at 4° C. NYSM buffer was warmed to room temperature. A volume of 750 μl. NYSM buffer was added to 750 μl from each 1.0-ml volume to prepare samples of 1.5 ml BIM compound at 1000 ppm for testing. A total of three BIM preparations per BIM molecule were prepared and tested for killing potency. Compounds tested were BIM-1, 11, 25, 26, 28, 29, 30, 32, 34. A solution of 5% DMSO in NYSM buffer was used as a negative control.
A standard commercially available semi-solid lepidopteran diet was prepared following manufacturer's instructions (Frontier, multi-species diet). […] LB+Kanamycin (antibiotic) growth media is the negative control for bacterial cultures. […]
(§4) For each of 3 replicates, 200 μl of diet was prepared in wells of a 96-well plate and the diet plates were warmed to room temperature prior to dispensing samples. […] All bioassays were assessed visually to record larval mortality and growth inhibition.

[16] = tested on: Cry1Fa resistant FAW; assay: Killing of Cry1Fa resistant fall armyworm; type: in vivo, Spodoptera frugiperda; details: 1000 ppm BIM compound, 20 μl on diet surface, 5-7 days
Description: as §2, §3
A standard commercially available semi-solid lepidopteran diet was prepared following manufacturer's instructions (Frontier, multi-species diet). […] LB+Kanamycin (antibiotic) growth media is the negative control for bacterial cultures. Cry1Fa is a positive control prepared as E. coli cells expressing the full-length Cry1Fa protein resuspended in PBS buffer at half the volume of the original growth culture resulting in 2× concentration of cells. Vip3A is a positive control prepared as E. coli whole cell culture expressing Vip3A.
For each of 3 replicates, 200 μl of diet was prepared in wells of a 96-well plate and the diet plates were warmed to room temperature prior to dispensing samples. After 750 μl NYSM buffer was added to 750 μl from each 1.0-ml volume to prepare samples of 1.5 ml BIM compound at 1000 ppm for testing, BIM solutions were vortexed and 20 μl were dispensed onto the diet surface in each of 16 wells using a repeating pipettor. These steps were repeated for each sample and control for each insect population being tested. BIM compound and control solutions were allowed to absorb into the diet in a biosafety hood until the diet surface was visibly dry. Once dry, wells were sealed with a clear membrane. Two pin holes were poked through the membrane in each well to maintain appropriate humidity level and aeration. Each well was infested with a single neonate larva, and the wells were resealed with perforated membrane to prevent escape. The infested plates were incubated in environmental chambers at 26° C. and 50% relative humidity for 5-7 days. All bioassays were assessed visually to record larval mortality and growth inhibition.

[17] = tested on: fall armyworm (FAW), susceptible and the two resistant varieties (Cry1 and Vip3A); assay: Killing of susceptible and Bt-resistant fall armyworm (strain not specified); type: in vivo, Spodoptera frugiperda; details: 1000 ppm BIM compound, 20 μl on diet surface, neonate larvae, at 7 days
Description: as §2
FAW eggs were incubated at approximately 26° C. at 50% relative humidity until eclosion (approximately 3 days) and the hatch was timed to within 12 hours of infesting the diet plates. BIM compounds were obtained from frozen stocks, thawed, suspended in 5% DMSO along with NYSM buffer to provide a solution of 2000 ppm BIM compound in a total volume of 1.0 ml, and stored at −20° C. For testing, a single tube of each BIM compound sample was thawed at 4° C. NYSM buffer was warmed to room temperature. A volume of 750 μl. […]
as §4

[18] = Spodoptera frugiperda, first instar larvae, calculated from killing dose curves FIG. 3D to 3NN, read-out: LD50 (the source's name)

## c1ccc2[nH]c(Cc3c[nH]c4ccccc34)cc2c1 [3-((1H-indol-2-yl)methyl)-1H-indole, 3-((1H-Indol-2-yl)methyl)-1H-indole]
[1]
  activity against Aedes aegypti: active
[2]
  LC50: 5.5 µg/mL and 22.5 µM
[3]; Spodoptera frugiperda, first instar larvae, N=16 per concentration, representative curve fit
  LC50: 598 µg/mL and 2.4 mM
[3]; first instar larvae
  activity against S. frugiperda: active

## c1ccc2c(Cc3c[nH]c4ccccc34)c[nH]c2c1 [Arundine, 3,3′-diindolylmethane]
[4]
  mortality: greater than 95%
[5]; 156 μg/mL arundine
  % killing: 100%
[5]; 625 μg/mL arundine
  % killing: 100%
[5]; 2500 μg/mL arundine
  % killing: 100%
[6]; 156 μg/mL arundine
  % killing: 74%
[6]; 625 μg/mL arundine
  % killing: 74%
[6]; 2500 μg/mL arundine
  % killing: 87%
[7]; 156 μg/mL arundine
  % killing: 100%
[7]; 625 μg/mL arundine
  % killing: 70%
[7]; 2500 μg/mL arundine
  % killing: 97%
[8]; 156 μg/mL arundine
  % killing: 72%
[8]; 625 μg/mL arundine
  % killing: 94%
[8]; 2500 μg/mL arundine
  % killing: 72%
[9]; 156 μg/mL arundine
  % killing: 21%
[9]; 625 μg/mL arundine
  % killing: 50%
[9]; 2500 μg/mL arundine
  % killing: 39%
[10]; 156 μg/mL arundine
  % killing: 47%
[10]; 625 μg/mL arundine
  % killing: 90%
[10]; 2500 μg/mL arundine
  % killing: 83%
[11]; 156 μg/mL arundine
  % killing: 23%
[11]; 625 μg/mL arundine
  % killing: 100%
[11]; 2500 μg/mL arundine
  % killing: 100%
[12]; 156 μg/mL arundine
  % killing: 27%
[12]; 625 μg/mL arundine
  % killing: 50%
[12]; 2500 μg/mL arundine
  % killing: 80%
[13]; 156 μg/mL arundine
  % killing: 41%
[13]; 625 μg/mL arundine
  % killing: 72%
[13]; 2500 μg/mL arundine
  % killing: 93%
[14]; 156 μg/mL arundine
  % killing: 40%
[14]; 625 μg/mL arundine
  % killing: 50%
[14]; 2500 μg/mL arundine
  % killing: 90%
[3]; 156 μg/mL arundine
  % killing: 40%
[3]; 625 μg/mL arundine
  % killing: 63%
[3]; 2500 μg/mL arundine
  % killing: 97%
[3]; [18]
  LC50: 1820 µM

## Clc1ccc2c(Cc3c[nH]c4cc(Cl)ccc34)c[nH]c2c1 [BIM-11]
[15]; Vip3A-resistant neonates
  lethality: 100%
[3]; [18]
  LC50: 1180 µM

## Clc1ccc2c(C(c3ccccc3)c3c[nH]c4cc(Cl)ccc34)c[nH]c2c1 [BIM-25]
[15]; neonates
  lethality: strong lethality
[16]; neonates
  lethality: strong lethality
[3]; [18]
  LC50: 504 µM

## Clc1ccc2c(C(Cc3ccccc3)c3c[nH]c4cc(Cl)ccc34)c[nH]c2c1 [BIM-26]
[17]
  lethality: 60-70%
[3]; [18]
  LC50: 581 µM

## Clc1ccc2c(C(c3ccc(Br)cc3)c3c[nH]c4cc(Cl)ccc34)c[nH]c2c1 [BIM-28]
[16]; Cry1 FAW neonates
  lethality: 100%
[3]; [18]
  LC50: 371 µM

## Cc1ccc(C(c2c[nH]c3cc(Cl)ccc23)c2c[nH]c3cc(Cl)ccc23)cc1 [BIM-29]
[16]; Cry1 FAW neonates
  lethality: 100%
[3]; first instar larvae, calculated from killing dose curves FIG. 3D to 3NN, read-out: LD50 (the source's name)
  LC50: 611 µM

## O=[N+]([O-])c1ccc(C(c2c[nH]c3cc(Cl)ccc23)c2c[nH]c3cc(Cl)ccc23)cc1 [BIM-32]
[15]; neonates
  lethality: strong lethality
[16]; neonates
  lethality: strong lethality

## Clc1ccc2c(C(c3ccccc3Br)c3c[nH]c4cc(Cl)ccc34)c[nH]c2c1 [BIM-34]
[16]; Cry1 FAW neonates
  lethality: 100%
[3]; [18]
  LC50: 352 µM
